In PMC13372822 (The EMBO Journal, 2026):
Changes are numbered by the printed parent chain.

Assays:
[1] = tested on: mock-transfected HEK293 cells; assay: Calcium assay in mock-transfected (empty vector) HEK293 cells; assay type: cell-based
Excerpt: Figure. R3 | Activity of the compounds on OXGR1 using calcium assays.
Concentration-response curves of the four agonists in activating OXGR1 through the calcium assays. HEK293 cells were transfected with OXGR1 or empty vector by electroporation.
Cells were then loaded with Fluo-4 AM and intracellular calcium changes after stimulation with different compounds were monitored. Responses were normalized to 100% for the maximal response of each compound on OXGR1. Data are mean ± S.E.M. from three independent experiments (n = 3), with three technical replicates performed for each […]
(1 picture or pasted object on this page, not shown here)

[2] = biological target: OXGR1 (Homo sapiens, UniProt Q96P68); assay: Calcium mobilization assay (Fluo-4 AM), wild-type OXGR1 in HEK293; details: for signal at concentrations exceeding the reported range: bell-shaped response curve; for activity in OXGR1-transfected HEK293 cells: in words
Method: (§1) The full-length human SUCR1 and mutations were fused after the HA signal peptide and Flag tag. The constructs were cloned into pcDNA6.0 vector for HEK293 system.
(§2) HEK293 cells were obtained from ATCC (Manassas, VA, USA) and cultured in DMEM supplemented with 10% (v/v) FBS, 100 mg/L penicillin, and 100 mg/L streptomycin in 5% CO2 at 37 °C. For transient transfection, ~2.5 × 10^6 cells were mixed with 2 µg plasmids in 200 µL transfection buffer, and electroporation was carried out with a Scientz-2C electroporation apparatus (Scientz Biotech, Ningbo, China). The experiments were carried out 24 h after transfection. HEK293 cell lines stably expressing Gα16 were constructed by our laboratory.
(§3) For OXGR1, plasmids were transfected into HEK293 (other receptors were transfected into HEK293 stably expressing Gα16) and seeded at a density of 4 × 10^4 per well into 96-well culture plates and incubated for 24 h at 37 °C in 5% CO2. The next day, Cells were incubated with 2 μM/L Fluo-4 AM in HBSS supplemented with 5.6 mM/L D-glucose and 250 μM/L sulfinpyrazone at 37 °C for 45 min. […] Three independent measurements were repeated, i.e., three different transfections, with three technical replicates performed for each experiment. EC50 and Emax values for each curve were calculated by Prism 8.0 software (GraphPad Software).

[3] = biological target: T1, SUCR1 mutants (variant named in the endpoint) (Homo sapiens, UniProt Q9BXA5, F175L/I157M); assay: Calcium mobilization assay, SUCR1 mutants in HEK293 stably expressing Gα16; assay type: cell-based;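 as to Emax: percent of the maximal response to succinate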
T1 construct: The full-length human SUCR1 and mutations were fused after the HA signal peptide and Flag tag; HA signal peptide (N); Flag (N); expressed in transfected cells; host or cells: HEK293 stably expressing Gα16 (pcDNA6.0, transient electroporation)
T1 sequence (Q9BXA5 1-334 I157M/F175L): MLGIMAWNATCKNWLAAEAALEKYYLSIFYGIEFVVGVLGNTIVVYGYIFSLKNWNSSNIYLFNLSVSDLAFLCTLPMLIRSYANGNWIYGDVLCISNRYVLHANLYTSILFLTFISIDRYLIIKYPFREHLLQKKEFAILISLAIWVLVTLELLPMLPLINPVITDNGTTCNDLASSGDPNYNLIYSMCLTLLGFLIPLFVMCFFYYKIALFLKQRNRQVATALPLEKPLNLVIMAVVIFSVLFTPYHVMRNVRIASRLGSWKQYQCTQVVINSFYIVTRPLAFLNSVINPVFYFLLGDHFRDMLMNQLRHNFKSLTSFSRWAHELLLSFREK
Method: as §1, §2, §3

[4] = biological target: T2, SUCR1 mutants (variant named in the endpoint) (Homo sapiens, UniProt Q9BXA5, F285A); assay: as above; assay type: cell-based
T2 construct: The full-length human SUCR1 and mutations were fused after the HA signal peptide and Flag tag; HA signal peptide (N); Flag (N); expressed in transfected cells; host or cells: HEK293 stably expressing Gα16 (pcDNA6.0, transient electroporation)
T2 sequence (Q9BXA5 1-334 F285A): T1 sequence (Q9BXA5 1-334 I157M/F175L) with M157I, L175F, F285A
Method: as §1, §2, §3

[5] = biological target: T3, SUCR1 mutants (variant named in the endpoint) (Homo sapiens, UniProt Q9BXA5, F285A/F72Y/Y248F); assay: as above; assay type: cell-based
T3 construct: The full-length human SUCR1 and mutations were fused after the HA signal peptide and Flag tag; HA signal peptide (N); Flag (N); expressed in transfected cells; host or cells: HEK293 stably expressing Gα16 (pcDNA6.0, transient electroporation)
T3 sequence (Q9BXA5 1-334 F72Y/Y248F/F285A): T1 sequence (Q9BXA5 1-334 I157M/F175L) with F72Y, M157I, L175F, Y248F, F285A
Method: as §1, §2, §3

[6] = biological target: T4, SUCR1 mutants (variant named in the endpoint) (Homo sapiens, UniProt Q9BXA5, F175L); assay: as above; assay type: cell-based; details: for EC50: SUCR1 F175L
T4 construct: The full-length human SUCR1 and mutations were fused after the HA signal peptide and Flag tag; HA signal peptide (N); Flag (N); expressed in transfected cells; host or cells: HEK293 stably expressing Gα16 (pcDNA6.0, transient electroporation)
T4 sequence (Q9BXA5 1-334 F175L): T1 sequence (Q9BXA5 1-334 I157M/F175L) with M157I
Method: as §1, §2, §3

[7] = biological target: T5, SUCR1 mutants (variant named in the endpoint) (Homo sapiens, UniProt Q9BXA5, F72Y); assay: as above; assay type: cell-based
T5 construct: The full-length human SUCR1 and mutations were fused after the HA signal peptide and Flag tag; HA signal peptide (N); Flag (N); expressed in transfected cells; host or cells: HEK293 stably expressing Gα16 (pcDNA6.0, transient electroporation)
T5 sequence (Q9BXA5 1-334 F72Y): T1 sequence (Q9BXA5 1-334 I157M/F175L) with F72Y, M157I, L175F
Method: as §1, §2, §3

[8] = biological target: T6, SUCR1 mutants (variant named in the endpoint) (Homo sapiens, UniProt Q9BXA5, F285A/F72Y/L102F); assay: as above; assay type: cell-based
T6 construct: The full-length human SUCR1 and mutations were fused after the HA signal peptide and Flag tag; HA signal peptide (N); Flag (N); expressed in transfected cells; host or cells: HEK293 stably expressing Gα16 (pcDNA6.0, transient electroporation)
T6 sequence (Q9BXA5 1-334 F72Y/L102F/F285A): T1 sequence (Q9BXA5 1-334 I157M/F175L) with F72Y, L102F, M157I, L175F, F285A
Method: as §1, §2, §3

[9] = HEK293, OXGR1 WT, each ligand normalized to WT (100%)
[10] = HEK293, OXGR1 WT, normalized to the maximal response elicited by AKG (100%)

## O=C(O)CCC(=O)C(=O)O [AKG, α-ketoglutarate]
[1]
  activity in mock-transfected cells: no activity
[2]; HEK293
  Emax: 100 ± 11%
[2]
  signal at concentrations exceeding the reported range: decrease in signal
  activity in OXGR1-transfected HEK293 cells: robust activity
[3]; HEK293
  Emax: -6.6 ± 3%
[4]; HEK293
  Emax: 1.7 ± 3%
[5]; HEK293
  Emax: 19 ± 2%
[6]; HEK293
  Emax: 3.5 ± 1%
[7]; HEK293
  Emax: 4.1 ± 2%
[8]; HEK293
  Emax: 5 ± 1%

## C=C(CC(=O)O)C(=O)O [ITA, itaconate]
[1]
  activity in mock-transfected cells: no activity
[2]; EC50, OXGR1 WT, Gq-mediated calcium signaling (Fig. 1D, Appendix Table S1)
  EC50: 83 µM
[2]; [9]
  Emax: 100 ± 10%
[2]; [10]
  Emax: 117 ± 4%
[2]
  signal at concentrations exceeding the reported range: decrease in signal
  activity in OXGR1-transfected HEK293 cells: robust activity
[3]; HEK293, SUCR1 F175L-I157M, Emax relative to the SUC
  Emax: -3.1 ± 4%
[4]; HEK293, SUCR1 F285A, Emax relative to the SUC
  Emax: 6.3 ± 3%
[5]; HEK293, SUCR1 F72Y-F285A-Y248F, Emax relative to the SUC
  Emax: 2.2 ± 2%
[6]
  EC50: 340 ± 300 µM
[6]; in words
  ITA responsiveness of SUCR1-F175L: partial ITA responsiveness
[7]; HEK293, SUCR1 F72Y, Emax relative to the SUC
  Emax: 3 ± 3%
[8]; HEK293, SUCR1 F72Y-L102F-F285A, Emax relative to the SUC
  Emax: 43 ± 5%

## O=C(O)CCC(=O)O [SUC, succinate]
[1]
  activity in mock-transfected cells: no activity
[2]; [9]
  Emax: 100 ± 4%
[2]; [10]
  Emax: 154 ± 4%
[2]
  activity in OXGR1-transfected HEK293 cells: robust activity
[3]; SUCR1 F175L-I157M
  EC50: 150 ± 9 µM
[4]; SUCR1 F285A
  EC50: 3600 ± 800 µM
[5]; SUCR1 F72Y-F285A-Y248F
  EC50: 2700 ± 780 µM
[6]
  EC50: 18 ± 3 µM
[7]; SUCR1 F72Y
  EC50: 1800 ± 300 µM
[8]; SUCR1 F72Y-L102F-F285A
  EC50: 3900 ± 1300 µM
